Test results published in patent US9988644B2, “Compounds for improved viral transduction” (bluebird bio, Inc., priority 2011, dated 2018).

Legend:
CD34+ cells [1] = test: FACS staining for ALD after transduction with ALD (ABCD1)-expressing lentivirus in presence of dmPGE2; assay type: cell-based, human; details: ABCD1 MOI 25
Protocol: (§1) One vial of CD34+ cells (AllCells) were thawed by incubating at 37° C. for 1-2 minutes and contents were transferred to 10 mL Stem Cell Growth Media (hereafter referred to as SCGM) in a 15-mL conical tube. Cells were spun for 5 minutes at 1500 RPM in a standard tabletop centrifuge, resuspended in 10 mL SCGM and counted on a hemacytometer. A volume correlating with an appropriate number of cells was transferred to a fresh 15-mL conical tube, and again spun for 5 minutes at 1500 RPM. Cells were resuspended to the desired cell concentration in SCGM+1× cytokines (100 ng/mL SCF, 100 ng/mL TPO, 100 ng/mL FltL, and 30 ng/mL IL-3), and plated on a sterile non-adherent surface at 37° C. in a standard humidified tissue culture incubator (5% CO2).
(§2) Pre-stimulated cells (Example 1) were counted after 18-24 hours of culture. The cells were collected and spun for 5 minutes at 1500 RPM. 1.2×10^6 pre-stimulated CD34^+ cells were resuspended in 60 uL 10× cytokines (1000 ng/mL SCF, 1000 ng/mL TPO, 1000 ng/mL FltL, and 300 ng/mL IL-3), 7.8 uL protamine sulfate, 111 uL viral supernatant, and 361.2 uL SCGM. 90 uL cell/virus suspension (about 200,000 cells) was added to each well of a standard non-adherent 96-well plate. dmPGE2 was added during this viral transduction step at a final concentration of 100 uM, 50 uM, 25 uM, 12.5 uM, 1 uM, or 0 uM.
(§3) Aliquots of 10 mM dmPGE2 in DMSO were prepared from 1 mg previously processed dmPGE2 (Cayman Chemicals). Briefly, air was pipetted into the vial of dmPGE2 until methyl acetate was evaporated. 263 uL DMSO was added to the PGE2 remaining in the vial, and aliquots of 25 uL were added to 1.5 mL Eppendorf tubes and stored at −80° C. 10× working stock solutions were prepared by serial dilution of dmPGE2 in SCGM, and were then added to cells at appropriate working concentrations, according to Table 2. Cells were then incubated at 37° C. in a standard humidified tissue culture incubator (5% CO2).
(§4) After 24 hours of culture with virus and dmPGE2, cells were washed prior to subsequent functional validation assays. Washing was performed by transferring cells to a 96-well U-bottom plate and spinning for 5 minutes at 1500 RPM in a standard tabletop centrifuge. Media was aspirated and cells were resuspended in 200 uL SCGM. Cells were spun again for 5 minutes at 1500 RPM and media was aspirated. Cells were again resuspended in 200 uL SCGM then spun for 5 minutes at 1500 RPM, and again the media was aspirated. Particular functional validation assays are described below.
(§5) Washed cells were resuspended in 200 uL SCGM+1× cytokines (as described in Example 1) and transferred to a standard 12-well non-adherent tissue culture plate containing an additional 800 uL SCGM+1× cytokines Cells were maintained for an additional 6 days in a standard humidified tissue culture incubator (5% CO2) and then subjected Vector Copy Number analysis (Example 5) and FACS analysis. For FACS analysis, cells were assayed for the presence of a virally-encoded transgene, green fluorescent protein (GFP). The frequency of the virally-labeled cells within the pool of cultured cells was quantified as the frequency of GFP+ cells within the population. The mean fluorescence intensity of labeled cells was quantified.
Tables 3A-C indicate the dose-response of dmPGE2 in promoting viral transduction of CD34+ cells for three separate experiments. […] Cells were then washed and analyzed by flow cytometry and PCR after approximately 1 week in culture. […]

CD34+ cells [2] = test: 7-Day liquid culture, FACS for GFP after transduction with GFP+ lentivirus in presence of dmPGE2; assay type: cell-based, human; details: for % Positive (GFP): ~1 week in culture
Protocol: as §1, §2, §3, §4, §5
Tables 3A-C indicate the dose-response of dmPGE2 in promoting viral transduction of CD34+ cells for three separate experiments. CD34+ cells were thawed and pre-stimulated with SCF, TPO, FltL, and IL3, then transduced (A) with GFP+ lentivirus at a multiplicity of infection of 25, (B) with GFP+ lentivirus at a multiplicity of infection of 5, or (C) transduced with an ALD (ABCD1)-expressing lentivirus at a multiplicity of infection of 25. Cells were exposed to dmPGE2 during the viral transduction step (24-48 hours of culture). Cells were then washed and analyzed by flow cytometry and PCR after approximately 1 week in culture. […]

CCCCC(C)(C)[C@H](O)/C=C/[C@H]1[C@H](O)CC(=O)[C@@H]1C/C=C\CCCC(=O)O [dmPGE2, 16,16-dimethyl PGE2]
% Positive (ALD via FACS staining) (CD34+ cells [1]; dmPGE2 1 uM during transduction (24-48 hours of culture)): 34.13%
% Positive (ALD via FACS staining) (CD34+ cells [1]; dmPGE2 12.5 uM during transduction (24-48 hours of culture)): 45.36%
% Positive (ALD via FACS staining) (CD34+ cells [1]; dmPGE2 25 uM during transduction (24-48 hours of culture)): 43.76%
% Positive (ALD via FACS staining) (CD34+ cells [1]; dmPGE2 50 uM during transduction (24-48 hours of culture)): 56.10%
% Positive (ALD via FACS staining) (CD34+ cells [1]; dmPGE2 100 uM during transduction (24-48 hours of culture)): 72.26%
% Positive (GFP) (CD34+ cells [2]; dmPGE2 12.5 uM during transduction (24-48 hours of culture), GFP MOI 5): 17.84%
% Positive (GFP) (CD34+ cells [2]; dmPGE2 12.5 uM during transduction (24-48 hours of culture), GFP MOI 25): 54.71%
MFI (mean fluorescent intensity) (CD34+ cells [2]; dmPGE2 12.5 uM during transduction, GFP MOI 5): 530,218.50
MFI (mean fluorescent intensity) (CD34+ cells [2]; dmPGE2 12.5 uM during transduction, GFP MOI 25): 759,442.75
% Positive (GFP) (CD34+ cells [2]; dmPGE2 25 uM during transduction (24-48 hours of culture), GFP MOI 5): 18.69%
% Positive (GFP) (CD34+ cells [2]; dmPGE2 25 uM during transduction (24-48 hours of culture), GFP MOI 25): 59.99%
MFI (mean fluorescent intensity) (CD34+ cells [2]; dmPGE2 25 uM during transduction, GFP MOI 5): 562,428.00
% Positive (GFP) (CD34+ cells [2]; dmPGE2 50 uM during transduction (24-48 hours of culture), GFP MOI 5): 36.80%
% Positive (GFP) (CD34+ cells [2]; dmPGE2 50 uM during transduction (24-48 hours of culture), GFP MOI 25): 67.62%
MFI (mean fluorescent intensity) (CD34+ cells [2]; dmPGE2 50 uM during transduction, GFP MOI 5): 656,703.50
MFI (mean fluorescent intensity) (CD34+ cells [2]; dmPGE2 50 uM during transduction, GFP MOI 25): 977,806.75
% Positive (GFP) (CD34+ cells [2]; dmPGE2 100 uM during transduction (24-48 hours of culture), GFP MOI 5): 42.97%
% Positive (GFP) (CD34+ cells [2]; dmPGE2 100 uM during transduction (24-48 hours of culture), GFP MOI 25): 81.53%
MFI (mean fluorescent intensity) (CD34+ cells [2]; dmPGE2 100 uM during transduction, GFP MOI 5): 732,716.25
MFI (mean fluorescent intensity) (CD34+ cells [2]; dmPGE2 100 uM during transduction, GFP MOI 25): 1,513,504.00
